The target in the test is T1, human β2AR (Homo sapiens, UniProt P07550).
T1 construct: made in house; host or cells: Trichoplusia ni larvae orally infected with occluded recombinant baculovirus; crude membrane fraction
The test can be described thus: Saturation binding of [^3H]-dihydroalprenolol to T. ni membranes expressing β2AR. Conditions: 4 days after oral infection. On the procedure: This vector was used to produce orally infectious occluded baculovirus as follows. Sf9 cells were infected with above vector and allowed to grow for approximately four days until their nuclei were filled with polyhedral inclusion bodies (PIBs). The cells were pelleted by centrifugation, and lysed by resuspension and douncing in SDS (0.5%). PIBs were pelleted from the lysate by a high-speed spin, washed with sodium chloride (500 mM), and resuspended in distilled water. T. ni larvae were infected with occluded baculovirus by applying drops of purified PIBs (˜10^7 PIBs per cube) to small cubes of insect diet. Newly molted 5th instar larvae (mass ˜100 mg) were starved for 6 hours and then permitted to feed on the infected diet. […] These larvae were frozen in liquid nitrogen and stored at −80° C. Larvae were subsequently lysed and a crude membrane fraction was prepared. Saturation binding was performed with [^3H]dihydroalprenolol, a βAR antagonist.

T1 sequence (P07550 whole entry): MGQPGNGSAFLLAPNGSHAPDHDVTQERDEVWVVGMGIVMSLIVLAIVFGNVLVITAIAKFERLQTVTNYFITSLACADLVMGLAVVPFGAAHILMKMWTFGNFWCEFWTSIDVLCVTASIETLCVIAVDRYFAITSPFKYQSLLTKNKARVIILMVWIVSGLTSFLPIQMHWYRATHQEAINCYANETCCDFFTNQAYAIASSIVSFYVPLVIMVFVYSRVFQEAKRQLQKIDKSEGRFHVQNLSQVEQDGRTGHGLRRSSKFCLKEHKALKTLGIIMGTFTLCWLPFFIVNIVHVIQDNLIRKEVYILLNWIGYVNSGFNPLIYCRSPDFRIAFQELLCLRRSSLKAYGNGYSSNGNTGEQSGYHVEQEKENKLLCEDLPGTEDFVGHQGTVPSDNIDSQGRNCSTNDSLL

As a reminder, the Kd is the concentration at which binding is half-saturated. Low values mean higher affinity, high ones lower affinity. The molecule `CCCc1ccccc1OCC(O)CNC(C)C` (centres unmarked) [[^3H]-dihydroalprenolol] showed a Bmax of 16 pmol/mg total protein and a Kd of 1.6 nM.

For the origin of these results see patent publication US8076103B2, “Eukaryotic expression system for the incorporation of stable isotopes into proteins” (The Board of Trustees of the Leland Stanford Junior …, priority 2007, dated 2011).
